19 compounds from patent publication US7109193B2, “Tricyclic diazepines tocolytic oxytocin receptor antagonists” (Wyeth, priority 2001, dated 2006) can be followed below.

This experiment has as its target T1, human vasopressin V2 receptor subtype (Homo sapiens, UniProt P30518).
T1 construct: host or cells: CHO cells (pZeoSV vector)
The experiment can be described thus: Vasopressin binding in Chinese Hamster Ovary cell membranes expressing human vasopressin V2 subtype receptors. Conditions: 100 nM, CHO cell membranes, [3H]arginine vasopressin, values without parentheses. The protocol:
Vasopressin Binding in Chinese Hamster Ovary Cell Membranes Expressing Human Vasopressin V2 Subtype Receptors
Chinese Hamster Ovary (CHO) cells stably transfected with the human V2 subtype receptors were obtained from M. Thibonnier, Case Western Reserve University School of Medicine, Cleveland, Ohio.
A. Passaging and Amplification of Cells:
The trypsin is removed by aspiration and the cells dislodged by tapping. Cell Culture medium (e.g. 30 mL for 1:30 split) is immediately added and mixed well to inactivate trypsin. 1 mL of detached cells is added to new culture flasks containing fresh Cell Culture medium (e.g. into 25 mL per T-150 flask), and mixed gently. The cells are incubated at 37° C. in 5% CO2. The medium is changed at 3 to 4 day interval (or as appropriate). […] All steps are done under sterile conditions. B. Membrane Preparation: The cells are washed twice gently with Hank's Balanced Salt solution (e.g. use 10 mL per T-150 flask). […] The contents are transferred to centrifuge tubes (50 mL) kept in ice bath. All subsequent steps are done at 4° C. The tubes are centrifuged at 300×g for 15 min (1380 rpm on SORVAL, Model RT6000D, using the rotor for 50 mL tubes). The supernatant is discarded and the cells suspended in homogenizing buffer (10 mM Tris-HCl containing 0.25 M sucrose and 1 mM EDTA, pH 7.4) ensuring that the volume of the buffer is about ten times the volume of the cell pellet. The cells are pooled into a centrifuge tube (50 mL) and homogenized with a Polytron at setting 6 for 10 sec. The homogenate is transferred into a Potter-Elvjehm homogenizer and homogenized with 3 strokes. The homogenate is centrifuged at 1500×g for 60 min at 4° C. (3100 rpm using SORVAL, model RT6000D, using the rotor for 50 mL tubes). The pellet is discarded. The supernatant is centrifuged at 100,000×g for 60 min. at 4° C. (Beckman L8-80M ultracentrifuge; spin at 37,500 rpm with rotor type 70 Ti for 50 mL tubes; 38,000 rpm with type 80Ti for 15 mL tubes; or 35,800 rpm with rotor type 45Ti). The supernantant is discarded and the pellet suspended in 3 to 4 mL of Tris buffer (50 mM TRIS-HCl, pH 7.4). The protein content is estimated by the Bradford or Lowry method. The volume of the membrane suspension is adjusted with the membrane buffer (50 mM Tris-HCl containing 0.1% BSA and 0.1 mM PMSF) to give 3.0 mg/mL (or as appropriate) of protein. The membranes are aliquoted and stored at −70° C. C. Radioligand Binding Assay: In wells of a 96-well format microtiter plate, is added 90, 110 or 130 μL (to make up a final volume of 200 μL) of assay buffer containing 50 mM of Tris-HCl (pH 7.4), […], 1 mg % aprotinin, 1 mg % leupeptin, 2 mg % 1,10-phenanthroline, 10 mg % trypsin inhibitor, and 0.1 mM PMSF. The inhibitors are added on the day of the experiment. The components are mixed at room temperature, and then kept in ice bath following adjustment of the pH to 7.4. […] For vasopressin and other peptide ligands 20 μL of 50% DMSO is added and the assay buffer volume is adjusted accordingly. To each well is added 50 μL of frozen membrane suspension thawed immediately prior to use and diluted in assay buffer to the required concentration (equivalent to 25 to 50 μg of protein/well as needed). 20 μL of 8 nM [^3H]arginine vasopressin ligand in the assay buffer, prepared just before use is added and incubated at room temperature for 60 min. shaking the plate on a mechanical shaker for the first 15 min. The incubation is stopped by rapid filtration of the plate contents followed by wash with ice-cold buffer (50 mM Tris-HCl, pH 7.4) using a cell harvester (Tomtek and Printed filtermat-B filter paper). The filter paper is thoroughly dried (7–12 min. in a microwave oven) and impregnated with MeltiLex B/H melt-on scintillation wax sheets and the radioactivity counted in a betaplate scintillation counter.

Consider `COc1cccc(-c2cc(OC)c(C(=O)N3Cc4ccc(C(=O)N5CCC[C@H]5CN5CCCC5)n4Cc4ccccc43)cc2Cl)c1` [Example 268, {10-[(6-Chloro-3,3′-dimethoxy[1,1′-biphenyl]-4-yl)carbonyl]-10,11-dihydro-5H-pyrrolo[2,1-c][1,4]benzodiazepin-3-yl}[(2S)-2-(1-pyrrolidinylmethyl)pyrrolidinyl]methanone], for which the “V2 % inhibition @ 100 nM” value stood at 34%.

Take `O=C(c1ccc2n1Cc1ccccc1N(C(=O)c1ccc(-c3cccc4ccccc34)cc1Cl)C2)N1CCC(N2CCCCC2)CC1` [Example 121]: the “V2 % inhibition @ 100 nM” value is 13%.

For the compound `COc1cccc(-c2ccc(C(=O)N3Cc4ccc(C(=O)N5CC[C@@H](N(C)C)C5)n4Cc4ccccc43)cc2OC)c1` [Example 283, {10-[(2,3′-Dimethoxy[1,1′-biphenyl]-4-yl)carbonyl]-10,11-dihydro-5H-pyrrolo[2,1-c][1,4]benzodiazepin-3-yl}[(3R)-3-(dimethylamino)pyrrolidinyl]methanone], the “V2 % inhibition @ 100 nM” value was 29%.

Take `Cc1cc(C(=O)N2Cc3ccc(C(=O)N(CCCN(C)C)CCCN(C)C)n3Cc3ccccc32)ccc1-c1ccccc1C(F)(F)F` [Example 3, 10-[(2-Methyl-2′-trifluoromethyl-[1,1′-biphenyl]-4-yl)-carbonyl]-10,11-dihydro-5H-pyrrolo[2,1-c][1,4]benzodiazepine-3-carboxylic acid bis-(3-dimethylamino-propyl)-amide]: the inhibition (in general, the percentage by which the read-out fell short of the control) at 0.1 µM turned out to be 22%.

Turning to `Cc1ccccc1-c1ccc(C(=O)N2Cc3ccc(C(=O)N4CCC[C@H]4CN4CCCC4)n3Cc3ccccc32)cc1` [Example 264, {10-[(2′-Methyl[1,1′-biphenyl]-4-yl)carbonyl]-10,11-dihydro-5H-pyrrolo[2,1-c][1,4]benzodiazepin-3-yl}[(2S)-2-(1-pyrrolidinylmethyl)pyrrolidinyl]methanone], the “V2 % inhibition @ 100 nM” value came to 12%.

For the compound `COc1cccc(-c2cc(OC)c(C(=O)N3Cc4ccc(C(=O)N5CCC(N6CCCC6)CC5)n4Cc4ccccc43)cc2Cl)c1` [Example 143, {10-[(6-Chloro-3,3′-dimethoxy[1,1′-biphenyl]-4-yl)carbonyl]-10,11-dihydro-5H-pyrrolo[2,1-c][1,4]benzodiazepin-3-yl}[4-(1-pyrrolidinyl)-1-piperidinyl]methanone], the inhibition at 0.1 µM was 7%.

In the case of `COc1cccc(-c2ccc(C(=O)N3Cc4ccc(C(=O)N5CCC(N6CCCCC6)CC5)n4Cc4ccccc43)cc2C)c1` [Example 114, {10-[(2-Methyl-3′-methoxy[1,1′-biphenyl]-4-yl)carbonyl]-10,11-dihydro-5H-pyrrolo[2,1-c][1,4]benzodiazepin-3-yl}[4-(1-piperidinyl)-1-piperidinyl]methanone], the inhibition at 0.1 µM came out at 22%.

As for `COc1cc(-c2ccccc2C)c(Cl)cc1C(=O)N1Cc2ccc(C(=O)NCCN3CCCCC3)n2Cc2ccccc21` [Example 155, 10-[(6-Chloro-3-methoxy-2′-methyl[1,1′-biphenyl]-4-yl)carbonyl]-N-[2-(1-piperidinyl)ethyl]-10,11-dihydro-5H-pyrrolo[2,1-c][1,4]benzodiazepine-3-carboxamide], the inhibition at 0.1 µM was determined as 15%.

For the compound `COc1ccccc1-c1ccc(C(=O)N2Cc3ccc(C(=O)N4CCC(N5CCCCC5)CC4)n3Cc3ccccc32)cc1C` [Example 112, {10-[(2-Methyl-2′-methoxy[1,1′-biphenyl]-4-yl)carbonyl]-10,11-dihydro-5H-pyrrolo[2,1-c][1,4]benzodiazepin-3-yl}[4-(1-piperidinyl)-1-piperidinyl]methanone], the inhibition at 0.1 µM is 32%.

“{10-[(2,2′-Dimethoxy[1,1′-biphenyl]-4-yl)carbonyl]-10,11-dihydro-5H-pyrrolo[2,1-c][1,4]benzodiazepin-3-yl}(4-isopropyl-1-piperazinyl)methanone [Example 244]”: the “V2 % inhibition @ 100 nM” value is listed as 9%.

Turning to `COc1cc(C(=O)N2Cc3ccc(C(=O)NCCCn4ccnc4)n3Cc3ccccc32)ccc1-c1ccccc1C` [Example 128, N-[3-(1H-Imidazol-1-yl)propyl]-10-[(2-methoxy-2′-methyl[1,1′-biphenyl]-4-yl)carbonyl]-10,11-dihydro-5H-pyrrolo[2,1-c][1,4]benzodiazepine-3-carboxamide], the inhibition at 0.1 µM stood at 17%.

As for `COc1cccc(-c2cc(OC)c(C(=O)N3Cc4ccc(C(=O)N5CCC(N6CCCCC6)CC5)n4Cc4ccccc43)cc2Cl)c1` [Example 117, {10-[(6-Chloro-3-methoxy-3′-methoxy[1,1′-biphenyl]-4-yl)carbonyl]-10,11-dihydro-5H-pyrrolo[2,1-c][1,4]benzodiazepin-3-yl}[4-(1-piperidinyl)-1-piperidinyl]methanone], the inhibition at 0.1 µM is 14%.

Turning to `COc1cc(C(=O)N2Cc3ccc(C(=O)N(C)CCCN(C)C)n3Cc3ccccc32)ccc1-n1c(C)ccc1C` [Example 310, N-[3-(Dimethylamino)propyl]-10-[4-(2,5-dimethyl-i H-pyrrol-1-yl)-3-methoxybenzoyl]-N-methyl-10,11-dihydro-5H-pyrrolo[2,1-c][1,4]benzodiazepine-3-carboxamide], the “V2 % inhibition @ 100 nM” value is listed as 12%.

Take `COc1ccccc1-c1ccc(C(=O)N2Cc3ccc(C(=O)NCCCn4ccnc4)n3Cc3ccccc32)cc1` [Example 126, N-[3-(1H-Imidazol-1-yl)propyl]-10-[(2′-methoxy[1,1′-biphenyl]-4-yl)carbonyl]-10,11-dihydro-5H-pyrrolo[2,1-c][1,4]benzodiazepine-3-carboxamide]: the inhibition at 0.1 µM came out at 18%.

For `COc1cc(C(=O)N2Cc3ccc(C(=O)N4CC[C@@H](N(C)C)C4)n3Cc3ccccc32)ccc1-c1cccc2ccccc12` [Example 276, [(3R)-3-(Dimethylamino)pyrrolidinyl]{10-[3-methoxy-4-(1-naphthyl)benzoyl]-10,11-dihydro-5H-pyrrolo[2,1-c][1,4]benzodiazepin-3-yl}methanone], the “V2 % inhibition @ 100 nM” value is given as −3%.

Take `COC(=O)c1ccc2c(c1)N(C(=O)c1ccc(-c3ccccc3C(F)(F)F)c(C)c1)Cc1cccn1C2` [Example 26, Methyl 10-{[2-methyl-2′-trifluoromethyl-[1,1′-biphenyl]-4-yl]carbonyl}-10,11-dihydro-5H-pyrrolo[2,1-c][1.4]benzodiazepine-8-carboxylate]: the “V2 % inhibition @ 100 nM” value is on record as 3%.

Regarding `COc1cccc(-c2cc(OC)c(C(=O)N3Cc4ccc(C(=O)NCCCn5ccnc5)n4Cc4ccccc43)cc2Cl)c1` [Example 130, 10-[(6-Chloro-3,3′-dimethoxy[1,1′-biphenyl]-4-yl)carbonyl]-N-[3-(1H-imidazol-1-yl)propyl]-10,11-dihydro-5H-pyrrolo[2,1-c][1,4]benzodiazepine-3-carboxamide], the inhibition at 0.1 µM came to 5%.

Turning to `Cc1ccccc1-c1ccc(C(=O)N2Cc3ccc(C(=O)N4CCC(N5CCCC5)CC4)n3Cc3ccccc32)cc1C` [Example 138, {10-[(2,2′-Dimethyl[1,1′-biphenyl]-4-yl)carbonyl]-10,11-dihydro-5H-pyrrolo[2,1-c][1,4]benzodiazepin-3-yl}[4-(1-pyrrolidinyl)-1-piperidinyl]methanone], the inhibition at 0.1 µM was found to be 29%.

For the compound `COc1cc(C(=O)N2Cc3ccc(C(=O)NCCN4CCCCC4)n3Cc3ccccc32)ccc1-c1ccccc1C` [Example 154, 10-[(2-Methoxy-2′-methyl[1,1′-biphenyl]4-yl)carbonyl]-N-[2-(1-piperidinyl)ethyl]-10,11-dihydro-5H-pyrrolo[2,1-c][1,4]benzodiazepine-3-carboxamide], the inhibition at 0.1 µM is 9%.
